Results from patent US20220193084A1, “INHIBITORS OF EZH2 AND METHODS OF USE THEREOF” (Epizyme, Inc., priority 2015, published 2022).

Columns and labels:
Oral bioavailability = conditions: in vivo
relapsed refractory NHL = assay: Phase 2 NHL trial: best response by molecular variant; type: in vivo, human
Protocol: Archive and cell-free tumor DNA collected from relapsed refractory NHL patients phase I and II trials, were tested in the NGS panel as described in Examples 1 and 2. The content of the panel included molecular variants occurring in NHL at ≥5% frequency. (Tables 15 and 17-19, FIGS. 19A-22C). […] Through correction of the background error by molecular bar coding the NHL specific plasma select panel was able to accurately detect mutations down to 0.1% allelic frequency (FIG. 13A and FIG. 13B). Translocations of ALK were detected in a cell-free DNA validation test set with samples from the phase I patients at a tumor purity of as low as 0.1% (FIG. 14). Sequencing of phase 1 NHL patients utilizing the 62 gene NHL NGS panel was completed for 10 archive tumor samples and 15 ctDNA samples (Table 15, FIG. 19A and FIG. 19B). In addition, microsatellite instability was monitored through the analysis of 5 distinct markers (BAT-25, BAT-26, MONO-27, NR-21 and NR-24), leading to one patient in the phase I trial being identified as microsatellite unstable based on the five tested markers (Table 15 and FIG. 19A and FIG. 19B, columns A16 and C16). Sequencing and an initial analysis of samples from patients in a phase 2 trial was completed with 58 archive tumor and 72 ctDNA baseline patient samples, wherein 48 of the archive tumor patients and 68 of the ctDNA patients were sequenced with reported response data.

[1] = tested on: relapsed or refractory solid tumors or B-cell lymphoma; assay: Phase 1 clinical trial (NCT01897571): tumor response; type: in vivo, human
Protocol: (§1) Table 10 describes a Phase 1 clinical trial design (sponsor protocol no.: E7438-G000-001, ClinicalTrials.gov identifier: NCT01897571). The study population included subjects with relapsed or refractory solid tumors or B-cell lymphoma. Subjects received a 3+3 dose escalation in expansion cohorts receiving 800 mg BID and 1600 mg BID, respectively, or a cohort for ascertaining the effect of food on dosing at 400 mg BID. The primary endpoint was a determination of recommended phase II dose (RP2D)/maximum tolerated dose (MTD). Secondary endpoints included safety, pharmacokinetics (PK), pharmacodynamics (PD) and tumor response, assessed every 8 wks.

[2] = human, in vivo
Protocol: as §1

[3] = phase 2, archive tumor, 6 patients with MYD88 (273P) mutations
[4] = phase 2, archive tumor, 9 patients with EZH2 mutations
[5] = phase 2, archive tumor, 13 patients with STAT6 mutations
[6] = phase 2, ctDNA variant allele frequencies of 0.1%, 6 patients with MYD88 (273P) mutations
[7] = phase 2, ctDNA variant allele frequencies of 0.1%, 11 patients with EZH2 mutations
[8] = phase 2, ctDNA variant allele frequencies of 0.1%, 14 patients with STAT6 mutations
[9] = phase 2, ctDNA variant allele frequencies of 0.1%, 18 patients with MYC mutations
[10] = phase 2, ctDNA variant allele frequencies of 1%, 5 patients with MYD88 (273P) mutations
[11] = phase 2, ctDNA variant allele frequencies of 1%, 8 patients with EZH2 mutations
[12] = phase 2, ctDNA variant allele frequencies of 1%, 10 patients with STAT6 mutations

Structure (SMILES): CCN(c1cc(-c2ccc(CN3CCOCC3)cc2)cc(C(=O)NCc2c(C)cc(C)[nH]c2=O)c1C)C1CCOCC1 [tazemetostat]
- oral bioavailability (Oral bioavailability): orally bioavailable
- Response (relapsed refractory NHL; Sample ID 10012004, STAT6 419D > G, vaf 42%, DLBCL GCB EZH2 Wild-type): Progressive Disease
- Response (relapsed refractory NHL; Sample ID 10032007, STAT6 419D > G, vaf 36%, FL EZH2 Wild-type): Partial Response
- Response (relapsed refractory NHL; Sample ID 10042005, STAT6 419D > G, vaf 19%, FL EZH2 Wild-type): Partial Response
- Response (relapsed refractory NHL; Sample ID 10052001, STAT6 419D > G, vaf 24%, FL EZH2 Mutant): Partial Response
- Response (relapsed refractory NHL; Sample ID 10062002, STAT6 419D > G, vaf 29%, DLBCL GCB EZH2 Wild-type): Stable Disease
- Response (relapsed refractory NHL; Sample ID 20012001, STAT6 286Q > R, vaf 24%, DLBCL GCB EZH2 Wild-type): Stable Disease
- Response (relapsed refractory NHL; Sample ID 20012003, STAT6 417N > S, vaf 27%, DLBCL GCB EZH2 Wild-type): Stable Disease
- Response (relapsed refractory NHL; Sample ID 20022001, STAT6 377E > K, vaf 33%, FL EZH2 Mutant): Partial Response
- Response (relapsed refractory NHL; Sample ID 20022008, STAT6 371C > R, vaf 35%, FL EZH2 Wild-type): Progressive Disease
- Response (relapsed refractory NHL; Sample ID 20042003, STAT6 419D > A, vaf 39%, DLBCL GCB EZH2 Mutant): Partial Response
- Response (relapsed refractory NHL; Sample ID 20052004, STAT6 419D > A, vaf 30%, DLBCL GCB EZH2 Wild-type): Complete Response
- Response (relapsed refractory NHL; Sample ID 30022001, STAT6 419D > H, vaf 42%, DLBCL GCB EZH2 Wild-type): Progressive Disease
- Response (relapsed refractory NHL; Sample ID 50022001, STAT6 419D > Y, vaf 39%, DLBCL non-GCB): Stable Disease
- response associated with MYC translocations (relapsed refractory NHL; phase 2, archive tumor, 2 MYC translocations): lack of response
- best response CR, number of patients (relapsed refractory NHL; [3]): 3
- best response PD, number of patients (relapsed refractory NHL; [3]): 1
- best response PR, number of patients (relapsed refractory NHL; [3]): 1
- best response PD, number of patients (relapsed refractory NHL; phase 2, archive tumor, 7 patients with MYC mutations): 5
- best response PD, number of patients (relapsed refractory NHL; [4]): 2
- best response PR, number of patients (relapsed refractory NHL; [4]): 4
- best response SD, number of patients (relapsed refractory NHL; [4]): 3
- best response CR, number of patients (relapsed refractory NHL; [5]): 1
- best response PD, number of patients (relapsed refractory NHL; [5]): 3
- best response PR, number of patients (relapsed refractory NHL; [5]): 5
- best response SD, number of patients (relapsed refractory NHL; [5]): 4
- response associated with MYC translocations (relapsed refractory NHL; phase 2, ctDNA variant allele frequencies of 0.1%, 5 MYC translocations): lack of response
- best response CR, number of patients (relapsed refractory NHL; [6]): 2
- best response PD, number of patients (relapsed refractory NHL; [6]): 2
- best response PR, number of patients (relapsed refractory NHL; [6]): 1
- best response SD, number of patients (relapsed refractory NHL; [6]): 1
- best response PD, number of patients (relapsed refractory NHL; [7]): 3
- best response PR, number of patients (relapsed refractory NHL; [7]): 5
- best response SD, number of patients (relapsed refractory NHL; [7]): 2
- best response PD, number of patients (relapsed refractory NHL; [8]): 3
- best response PR, number of patients (relapsed refractory NHL; [8]): 5
- best response SD, number of patients (relapsed refractory NHL; [8]): 6
- best response PD, number of patients (relapsed refractory NHL; [9]): 9
- best response PR, number of patients (relapsed refractory NHL; [9]): 2
- best response SD, number of patients (relapsed refractory NHL; [9]): 3
- response associated with MYC translocations (relapsed refractory NHL; phase 2, ctDNA variant allele frequencies of 1%, 5 MYC translocations): lack of response
- best response PD, number of patients (relapsed refractory NHL; phase 2, ctDNA variant allele frequencies of 1%, 5 patients with MYC mutations): 3
- best response CR, number of patients (relapsed refractory NHL; [10]): 2
- best response PD, number of patients (relapsed refractory NHL; [10]): 2
- best response PR, number of patients (relapsed refractory NHL; [10]): 1
- best response PD, number of patients (relapsed refractory NHL; [11]): 3
- best response PR, number of patients (relapsed refractory NHL; [11]): 4
- best response SD, number of patients (relapsed refractory NHL; [11]): 1
- best response PD, number of patients (relapsed refractory NHL; [12]): 2
- best response PR, number of patients (relapsed refractory NHL; [12]): 4
- best response SD, number of patients (relapsed refractory NHL; [12]): 4
- clinical responses in phase 1 clinical trial ([1]; both EZH2 mutant and wild type patients): demonstrated clinical responses
- clinical activity as a monotherapy ([1]; relapsed or refractory DLBCL (GCB and non-GCB), FL and MZL): demonstrates clinical activity
- Abdominal pain, All Events, All Grades [2]: 4
- Abdominal pain, All Events, Grade ≥3 [2]: 1
- Abdominal pain, All Treatment-Related, All Grades [2]: 1
- Abdominal pain, All Treatment-Related, Grade ≥3 [2]: 0
- Anemia, All Events, All Grades [2]: 5
- Anemia, All Events, Grade ≥3 [2]: 0
- Anemia, All Treatment-Related, All Grades [2]: 3
- Anemia, All Treatment-Related, Grade ≥3 [2]: 0
- Anxiety, All Events, All Grades [2]: 3
- Anxiety, All Events, Grade ≥3 [2]: 0
- Anxiety, All Treatment-Related, All Grades [2]: 1
- Anxiety, All Treatment-Related, Grade ≥3 [2]: 0
- Asthenia, All Events, All Grades [2]: 23
- Asthenia, All Events, Grade ≥3 [2]: 0
- Asthenia, All Treatment-Related, All Grades [2]: 13
- Asthenia, All Treatment-Related, Grade ≥3 [2]: 0
- Constipation, All Events, All Grades [2]: 7
- Constipation, All Events, Grade ≥3 [2]: 0
- Constipation, All Treatment-Related, All Grades [2]: 2
- Constipation, All Treatment-Related, Grade ≥3 [2]: 0
- Decreased appetite, All Events, All Grades [2]: 9
- Decreased appetite, All Events, Grade ≥3 [2]: 1
- Decreased appetite, All Treatment-Related, All Grades [2]: 4
- Decreased appetite, All Treatment-Related, Grade ≥3 [2]: 0
- Depression, All Events, All Grades [2]: 3
- Depression, All Events, Grade ≥3 [2]: 2
- Depression, All Treatment-Related, All Grades [2]: 1
- Depression, All Treatment-Related, Grade ≥3 [2]: 0
- Diarrhea, All Events, All Grades [2]: 6
- Diarrhea, All Events, Grade ≥3 [2]: 0
- Diarrhea, All Treatment-Related, All Grades [2]: 4
- Diarrhea, All Treatment-Related, Grade ≥3 [2]: 0
- Dry skin, All Events, All Grades [2]: 5
- Dry skin, All Events, Grade ≥3 [2]: 0
- Dry skin, All Treatment-Related, All Grades [2]: 4
- Dry skin, All Treatment-Related, Grade ≥3 [2]: 0
- Dysgeusia, All Events, All Grades [2]: 5
- Dysgeusia, All Events, Grade ≥3 [2]: 0
- Dysgeusia, All Treatment-Related, All Grades [2]: 5
- Dysgeusia, All Treatment-Related, Grade ≥3 [2]: 0
- Dyspnea, All Events, All Grades [2]: 5
- Dyspnea, All Events, Grade ≥3 [2]: 0
- Dyspnea, All Treatment-Related, All Grades [2]: 0
- Dyspnea, All Treatment-Related, Grade ≥3 [2]: 0
- Hepatocellular injury, All Events, All Grades [2]: 2
- Hepatocellular injury, All Events, Grade ≥3 [2]: 1
- Hepatocellular injury, All Treatment-Related, All Grades [2]: 1
- Hepatocellular injury, All Treatment-Related, Grade ≥3 [2]: 1
- Hypertension, All Events, All Grades [2]: 3
- Hypertension, All Events, Grade ≥3 [2]: 1
- Hypertension, All Treatment-Related, All Grades [2]: 2
- Hypertension, All Treatment-Related, Grade ≥3 [2]: 1
- Hypophosphatemia, All Events, All Grades [2]: 4
- Hypophosphatemia, All Events, Grade ≥3 [2]: 0
- Hypophosphatemia, All Treatment-Related, All Grades [2]: 1
- Hypophosphatemia, All Treatment-Related, Grade ≥3 [2]: 0
- Insomnia, All Events, All Grades [2]: 3
- Insomnia, All Events, Grade ≥3 [2]: 0
- Insomnia, All Treatment-Related, All Grades [2]: 0
- Insomnia, All Treatment-Related, Grade ≥3 [2]: 0
- Muscle spasms, All Events, All Grades [2]: 5
- Muscle spasms, All Events, Grade ≥3 [2]: 0
- Muscle spasms, All Treatment-Related, All Grades [2]: 3
- Muscle spasms, All Treatment-Related, Grade ≥3 [2]: 0
- Nausea, All Events, All Grades [2]: 8
- Nausea, All Events, Grade ≥3 [2]: 0
- Nausea, All Treatment-Related, All Grades [2]: 8
- Nausea, All Treatment-Related, Grade ≥3 [2]: 0
- Neutropenia, All Events, All Grades [2]: 3
- Neutropenia, All Events, Grade ≥3 [2]: 1
- Neutropenia, All Treatment-Related, All Grades [2]: 3
- Neutropenia, All Treatment-Related, Grade ≥3 [2]: 1
- Night sweats, All Events, All Grades [2]: 3
- Night sweats, All Events, Grade ≥3 [2]: 0
- Night sweats, All Treatment-Related, All Grades [2]: 3
- Night sweats, All Treatment-Related, Grade ≥3 [2]: 0
- Peripheral edema, All Events, All Grades [2]: 3
- Peripheral edema, All Events, Grade ≥3 [2]: 0
- Peripheral edema, All Treatment-Related, All Grades [2]: 2
- Peripheral edema, All Treatment-Related, Grade ≥3 [2]: 0
- Safety profile as monotherapy [2]: acceptable
- Thrombocytopenia, All Events, All Grades [2]: 8
- Thrombocytopenia, All Events, Grade ≥3 [2]: 2
- Thrombocytopenia, All Treatment-Related, All Grades [2]: 7
- Thrombocytopenia, All Treatment-Related, Grade ≥3 [2]: 1
- Vomiting, All Events, All Grades [2]: 6
- Vomiting, All Events, Grade ≥3 [2]: 0
- Vomiting, All Treatment-Related, All Grades [2]: 5
- Vomiting, All Treatment-Related, Grade ≥3 [2]: 0
